# Experimental data reported in US12370193B2, “Method of inhibiting TREM-1” (UNIVERSITY OF FLORIDA RESEARCH FOUNDATION, INCORPORATED, priority 2019, dated 2025).
# Legend:
# diet-induced obesity = experiment: Diet-induced obese (DIO) mouse model; assay type: in vivo, DIO mice
# RORβ = experiment: Gal4-RORβ co-transfection promoter-reporter assay; assay type: cell-based; details: Gal4 assay format
# Experimental: (§1) Reporter gene assays: Twenty-four hours before transfection, HEK293T cells were plated in 96-well plates at a density of 15×10^3 cells per well. UAS:luciferase reporter and Ga14-RORa, Gal4-RORb, Gal4-RORγ, Gal4-LXRα, or Gal4 PPARγ DNA co-transfections were performed using X-tremeGENE 9 (Roche). Twenty-four hours after transfection, the cells were treated with vehicle or compound. Twenty-four hours after treatment, the luciferase activity was measured using the Dual-Glo luciferase assay system (Promega). Results were analyzed using GraphPad Prism software.
# [1] = Tolerability following chronic administration; assay type: in vivo
# TREM-1 [2] = experiment: TREM-1 gene expression in LPS-stimulated RAW264.7 cells (RNA sequencing, qPCR); assay type: cell-based, mouse
# Experimental: (§2) FIG. 2B are graphs showing TREM-1 gene expression by q-PCR. […] All experiments were performed with 3 biological replicates and the median value of TREM-1 fluorescence was represented by the graph on the bottom.
# (§3) Quantitative RT-PCR: Total RNA was extracted from EL4 or RAW264.7 cells using RNeasy Plus Micro Kit (Qiagen) and the RNA was reverse transcribed using the ABI reverse transcription kit (Applied Biosystems/Thermo Fisher Scientific, Waltham MA). Quantitative PCR was performed with a 7900HT Fast Real Time PCR System (Applied Biosystems) using SYBR green (Roche).
# (§4) mRNA sequencing analysis: RAW264.7 cells RNA extraction protocol for RNA seq was derived from Qiagen Kit-74106. Total RNA was quantified using the Qubit 2.0 Fluorometer (Invitrogen, Carlsbad, CA) and run on the Agilent 2100 Bioanalyzer (Agilent Technologies, Santa Clara, CA) for quality assessment. RNA samples of good quality with RNA Integrity Number (RIN)>8.0 were further processed. A RNase-free working environment was maintained and RNase-free tips, Eppendorf tubes and plates were utilized for the subsequent steps. Messenger RNA was selectively isolated from total RNA (300 ng input) using poly-T oligos attached to magnetic beads and converted to sequence-ready libraries using the TruSeq stranded mRNA sample prep protocol (Cat. #: RS-122-2101, Illumina, San Diego, CA). The final libraries were validated on the bioanalyzer DNA chips and qPCR quantified using primers that recognize the illumina adaptors. The libraries were then pooled at equimolar ratios, quantified using qPCR and loaded onto the NextSeq 500 flow cell at 1.8 pM final concentration. They were sequenced using the high-output, paired-end, 75-bp chemistry. Demultiplexed and quality filtered raw reads (fastq) generated from the NextSeq 500 were trimmed (adaptor sequences) using Flexbar 2.4 and aligned to the mouse reference database (mm9) using TopHat version 2.0.9 (Trapnell et al., 2009). HTseq-count version 0.6.1 was used to generate gene counts and differential gene expression analysis was performed using Deseq2 (Anders and Huber, 2010).
# RAW264.7 cells = experiment: LXR target, cytokine and SENP gene expression in LPS-stimulated RAW264.7 cells; assay type: cell-based, mouse
# Experimental: FIGS. 3A-3D: Comparison with LXR agonist. […] FIGS. 3C and 3D show log 2 fold change of SENP3 expression in RAW264.7 cells mRNAseq and q-PCR.
# as §3, §4
# TREM-1 [3] = experiment: TREM-1 surface expression by FACS in LPS-stimulated RAW264.7 cells; assay type: cell-based, mouse; details: 50 hr incubation
# Experimental: as §2
# Flow cytometry and antibodies: For the analysis of macrophage activation, RAW264.7 cells (American Type Culture Collection) were pre-incubated with 5 μM 1903 for 18 h then stimulated with 1 μg/mL LPS (Escherichia coli 0127:B8, Sigma-Aldrich (St. Louis, MO)) for 6 h. RAW264.7 cells were stained with APC conjugated anti-TREM-1 antibody (eBioscience). Cell sorting was performed using LSRII (BD Bioscience).
# RORα = experiment: Gal4-RORα co-transfection promoter-reporter assay; assay type: cell-based; details: Gal4 assay format
# Experimental: as §1
# OP9 cells = experiment: Adipogenesis and gene expression in MDI-differentiated OP9 cells; assay type: cell-based
# From the text: FIGS. 1A to 1E: Pan modulator with poly-pharmacology. […] FIG. 1D is a graph showing PPARγ target genes (aP2 and CD36) expression in OP9 cells with and without MDI (IBMX, dexamethasone, insulin) treatment. […] SR1903 is represented as orange sticks while PPARγ, RORγ, and LXRβ are depicted as blue ribbons respectively. Specific residues driving the interaction labelled and shown as sticks as well. […] FIG. 1F are graphs showing RORγ target genes (IL17A and IL17F) expression in EL4 cells.
# FIG. 5A-5C: PPARγ and RORγ expression during adipogenesis of OP9 cells.
# Cell lines: HEK293T cells and EL4 cells (American Type Culture Collection) were maintained in DMEM and RAW264.7 cells (American Type Culture Collection) were maintained in RPMI-1640 with 10% heat inactivated FBS and antibiotics (penicillin, streptomycin; Invitrogen). OP9 cells (American Type Culture collection) were maintained in Alpha minimum essential medium (MEM-alpha) with 20% heat inactivated FBS. Twenty-four hours post-confluence, the OP9 cells were differentiated with IBMX ([…]), dexamethasone (1 μM), Insulin (10 μg/mL) for 48 hrs.
# as §3
# [4] = test system: collagen-induced arthritis; experiment: Collagen-induced arthritis (CIA) mouse model
# Experimental: Clinical score was monitored every day after boosting during 18 days. […] The dosage of all compounds was identical in each group.
# Briefly, DBA/1J mice were injected with chicken type II collagen on day 1 and then each animal received a boost injection of collagen on Day 21. Compound treatment, initiated on day 3-post boost injection, was administered intraperitoneally at 20 mg/kg twice-a-day for a total of 16 days. […] Mice: All mice were maintained in a specific pathogen-free environment in accordance with institutional protocol. […] Female DBA/1J mice were purchased from Taconic. CIA was induced in 8 weeks as previously described^40.
# [5] = 22-week-old DIO mice, 14 days, 20 mg/kg
# [6] = DIO mice, 20 mg/kg i.p. for 14 days
# [7] = OP9 cells, MDI plus 5 uM SR1903, compared to MDI treatment alone
smiles,measurement,setting,value
"Cc1cc(CN2CCN(Cc3ccncc3)CC2)ccc1-c1ccc(C(O)(C(F)(F)F)C(F)(F)F)cc1 [SR1903, 1,1,1,3,3,3-hexafluoro-2-(2′-methyl-4′-((4-(pyridin-4-ylmethyl)piperazin-1-yl)methyl)-[1,1′-biphenyl]-4-yl)propan-2-ol]",obesity related thymic involution,diet-induced obesity; [5],protected from obesity related thymic involution
same,thymus weight,diet-induced obesity; [5],increase in thymus weight
same,Socs3 expression in the hypothalamus,diet-induced obesity; DIO mice,repressed
same,fasting and fed insulin levels,diet-induced obesity; DIO mice,improved
same,fasting leptin levels,diet-induced obesity; DIO mice,did not alter
same,food intake,diet-induced obesity; DIO mice,reduced food intake
same,leptin resistance (leptin sensitivity test),diet-induced obesity; DIO mice,reduced
same,differentiation of αβTCR+CD4+ and αβTCR+CD8+ cells,diet-induced obesity; DIO mice thymocytes,no effect
same,λδT cell differentiation,diet-induced obesity; DIO mice thymocytes,increase
same,"HDL, TAG, and FFA",diet-induced obesity; [6],no effect
same,fasting glucose levels,diet-induced obesity; [6],improved
same,glucose excursion in glucose tolerance test,diet-induced obesity; [6],statistically significant improvement
same,total cholesterol and LDL,diet-induced obesity; [6],reduced
same,body weight reduction,"diet-induced obesity; DIO mice, 14 days of treatment",~15%
same,reduction of fat mass,"diet-induced obesity; DIO mice, 14 days, determined by NMR",~17%
same,leptin in freely feeding mice,"diet-induced obesity; DIO mice, compared to vehicle",statistically reduced
same,activity on RORβ,RORβ,lack activity
same,tolerability,[1],very well tolerated
same,LPS induction of TREM-1 gene expression (qPCR),TREM-1 [2]; 26 hr exposure,significantly repressed
same,LPS induction of TREM-1 gene expression (qPCR),TREM-1 [2]; 50 hr treatment,maintained repression
same,TREM1 signaling expression (RNA sequencing),"TREM-1 [2]; LPS-stimulated RAW264.7 cells, 10 μM compound vs DMSO-only",significantly suppressed
same,expression of ACACA and FASN,RAW264.7 cells; LPS-stimulated RAW264.7 cells,increased
same,expression of LXR target genes including ABCG1 and SCD,"RAW264.7 cells; LPS-stimulated RAW264.7 cells, RNA sequencing",increased the expression
same,expression of IL6 and IL33,"RAW264.7 cells; LPS-stimulated RAW264.7 cells, RNA sequencing, confirmed by qPCR",robustly dampened
same,expression of SENP2 and SENP6,"RAW264.7 cells; LPS-stimulated RAW cells, RNA sequencing",repressed
same,expression of SENP3,"RAW264.7 cells; LPS-stimulated RAW cells, RNA sequencing, qPCR",increased the expression
same,LPS-induced TREM1 cell surface expression,TREM-1 [3],completely blocked
same,activity on RORα,RORα,lack activity
same,expression of PPARγ,OP9 cells; OP9 adipogenesis,robustly repressed
same,expression of RORγ,OP9 cells; OP9 adipogenesis,no effect
same,lipid droplet formation,"OP9 cells; OP9 cells, MDI in combination with SR1903, 3 days",suppression of lipid droplet formation
same,repression of PPARγ target gene CD36 expression,OP9 cells; [7],87%
same,repression of PPARγ target gene aP2 (FABP4) expression,OP9 cells; [7],99%
same,enlargement of the liver,"[4]; CIA mice, 20 mg/kg",did not cause enlargement of the liver
same,thymocyte differentiation and survival,"[4]; CIA mice, compared to GW3965 or T0901317",enhanced thymocyte differentiation and survival
same,arthritis clinical score,"[4]; Day 34, 20 mg/kg i.p. twice-a-day, vehicle 13.6±2.9",3.8±2.5
same,intrathymic cell number,"[4]; treated mice, unlike SR2211 treated mice",enriched
